Measurements from patent US6914045B2, “Glycopeptide antibiotics” (Wyeth Holdings Corporation, priority 2001, dated 2005).
Converted amounts (≈) assume the structure as drawn.

Experiments:
Assay in all cases: in vitro antibacterial evaluation, MIC by broth dilution
Type in all cases: cell-based
Staphylococcus sp. = details: broth dilution, 18 hours at 35° C.
Outline: (§1)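 Broth dilution per NCCLS standard M7-A2 in Muller-Hinton II […], with an inoculum of 5×10^5 CFU/mL and antibiotic spanning 64-0.06 μg/mL. The MIC is the lowest concentration that inhibits growth of the organism.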

Enterococcus sp. = details: broth dilution, 18 hours at 35° C.
Outline: as §1

Streptococcus sp. = details: broth dilution, 18 hours at 35° C.
Outline: as §1

Escherichia coli = details: 18 hours at 35° C.

MIC Coagulase Negative Staphylococcus (GC 4547) (Staphylococcus sp.): 2 µg/mL (≈ 1.31 µM)
MIC Coagulase Negative Staphylococcus (GC 4548) (Staphylococcus sp.): 1 µg/mL (≈ 0.657 µM)
MIC Coagulase Negative Staphylococcus (GC 4549) (Staphylococcus sp.): 1 µg/mL (≈ 0.657 µM)
MIC Coagulase Negative Staphylococcus (GC 4551) (Staphylococcus sp.): 2 µg/mL (≈ 1.31 µM)
MIC Coagulase Negative Staphylococcus (GC 6257) (Staphylococcus sp.): 1 µg/mL (≈ 0.657 µM)
MIC Staphylococcus aureus (ATCC 29213) (Staphylococcus sp.): 2 µg/mL (≈ 1.31 µM)
MIC Staphylococcus aureus (GC 1131) (Staphylococcus sp.): 2 µg/mL (≈ 1.31 µM)
MIC Staphylococcus aureus (GC 3051) (Staphylococcus sp.): 1 µg/mL (≈ 0.657 µM)
MIC Staphylococcus aureus (GC 3053) (Staphylococcus sp.): 2 µg/mL (≈ 1.31 µM)
MIC Staphylococcus aureus (GC 4541) (Staphylococcus sp.): 4 µg/mL (≈ 2.63 µM)
MIC Staphylococcus aureus (GC 4542) (Staphylococcus sp.): 2 µg/mL (≈ 1.31 µM)
MIC Staphylococcus aureus (GC 4544) (Staphylococcus sp.): 2 µg/mL (≈ 1.31 µM)
MIC Staphylococcus aureus (GC 4545) (Staphylococcus sp.): 2 µg/mL (≈ 1.31 µM)
MIC Staphylococcus aureus-SMITH (GC 4543) (Staphylococcus sp.): 2 µg/mL (≈ 1.31 µM)
MIC Staphylococcus aureus (ATCC 29213) (Staphylococcus sp.; strain ATCC 29213): 2 µg/mL (≈ 1.31 µM)
MIC Staphylococcus aureus (GC 1131) (Staphylococcus sp.; strain GC 1131): 2 µg/mL (≈ 1.31 µM)
MIC Staphylococcus aureus (GC 3051) (Staphylococcus sp.; strain GC 3051): 1 µg/mL (≈ 0.657 µM)
MIC Staphylococcus aureus (GC 3053) (Staphylococcus sp.; strain GC 3053): 2 µg/mL (≈ 1.31 µM)
MIC Staphylococcus aureus (GC 4541) (Staphylococcus sp.; strain GC 4541): 4 µg/mL (≈ 2.63 µM)
MIC Staphylococcus aureus (GC 4542) (Staphylococcus sp.; strain GC 4542): 2 µg/mL (≈ 1.31 µM)
MIC Staphylococcus aureus-SMITH (GC 4543) (Staphylococcus sp.; strain GC 4543): 2 µg/mL (≈ 1.31 µM)
MIC Staphylococcus aureus (GC 4544) (Staphylococcus sp.; strain GC 4544): 2 µg/mL (≈ 1.31 µM)
MIC Staphylococcus aureus (GC 4545) (Staphylococcus sp.; strain GC 4545): 2 µg/mL (≈ 1.31 µM)
MIC Coagulase Negative Staphylococcus (GC 4547) (Staphylococcus sp.; strain GC 4547): 2 µg/mL (≈ 1.31 µM)
MIC Coagulase Negative Staphylococcus (GC 4548) (Staphylococcus sp.; strain GC 4548): 1 µg/mL (≈ 0.657 µM)
MIC Coagulase Negative Staphylococcus (GC 4549) (Staphylococcus sp.; strain GC 4549): 1 µg/mL (≈ 0.657 µM)
MIC Coagulase Negative Staphylococcus (GC 4551) (Staphylococcus sp.; strain GC 4551): 2 µg/mL (≈ 1.31 µM)
MIC Coagulase Negative Staphylococcus (GC 6257) (Staphylococcus sp.; strain GC 6257): 1 µg/mL (≈ 0.657 µM)
MIC Enterococcus avium (GC 4558) (Enterococcus sp.): 4 µg/mL (≈ 2.63 µM)
MIC Enterococcus faecalis (ATCC 29212) (Enterococcus sp.): 4 µg/mL (≈ 2.63 µM)
MIC Enterococcus faecalis (GC 2242) (Enterococcus sp.): 4 µg/mL (≈ 2.63 µM)
MIC Enterococcus faecalis (GC 2691) (Enterococcus sp.): 4 µg/mL (≈ 2.63 µM)
MIC Enterococcus faecalis (GC 3059) (Enterococcus sp.): 4 µg/mL (≈ 2.63 µM)
MIC Enterococcus faecalis (GC 4552) (Enterococcus sp.): 4 µg/mL (≈ 2.63 µM)
MIC Enterococcus faecalis (GC 4553) (Enterococcus sp.): 4 µg/mL (≈ 2.63 µM)
MIC Enterococcus faecalis (GC 4554) (Enterococcus sp.): 4 µg/mL (≈ 2.63 µM)
MIC Enterococcus faecalis (GC 6189) (Enterococcus sp.): 4 µg/mL (≈ 2.63 µM)
MIC Enterococcus faecium (GC 2243) (Enterococcus sp.): 4 µg/mL (≈ 2.63 µM)
MIC Enterococcus faecium (GC 4556) (Enterococcus sp.): 4 µg/mL (≈ 2.63 µM)
MIC Enterococcus faecium (GC 4557) (Enterococcus sp.): 2 µg/mL (≈ 1.31 µM)
MIC Enterococcus faecalis (ATCC 29212) (Enterococcus sp.; strain ATCC 29212): 4 µg/mL (≈ 2.63 µM)
MIC Enterococcus faecium (GC 2243) (Enterococcus sp.; strain GC 2243): 4 µg/mL (≈ 2.63 µM)
MIC Enterococcus faecalis (GC 4552) (Enterococcus sp.; strain GC 4552): 4 µg/mL (≈ 2.63 µM)
MIC Enterococcus faecalis (GC 4553) (Enterococcus sp.; strain GC 4553): 4 µg/mL (≈ 2.63 µM)
MIC Enterococcus faecalis (GC 4554) (Enterococcus sp.; strain GC 4554): 4 µg/mL (≈ 2.63 µM)
MIC Enterococcus faecium (GC 4556) (Enterococcus sp.; strain GC 4556): 4 µg/mL (≈ 2.63 µM)
MIC Enterococcus faecium (GC 4557) (Enterococcus sp.; strain GC 4557): 2 µg/mL (≈ 1.31 µM)
MIC Enterococcus avium (GC 4558) (Enterococcus sp.; strain GC 4558): 4 µg/mL (≈ 2.63 µM)
MIC Enterococcus faecalis (GC 6189) (Enterococcus sp.; strain GC 6189): 4 µg/mL (≈ 2.63 µM)
MIC Enterococcus faecalis (GC 2242) (Enterococcus sp.; inoculum 5×10^5 CFU/mL, strain GC 2242): 4 µg/mL (≈ 2.63 µM)
MIC Enterococcus faecalis (GC 2691) (Enterococcus sp.; inoculum 5×10^5 CFU/mL, strain GC 2691): 4 µg/mL (≈ 2.63 µM)
MIC Enterococcus faecalis (GC 3059) (Enterococcus sp.; inoculum 5×10^5 CFU/mL, strain GC 3059): 4 µg/mL (≈ 2.63 µM)
MIC Streptococcus agalactiae (GC 4564) (Streptococcus sp.): 0.25 µg/mL (≈ 0.164 µM)
MIC Streptococcus pneumoniae (ATCC 6301) (Streptococcus sp.): <0.06 µg/mL
MIC Streptococcus pneumoniae (GC 1894) (Streptococcus sp.): <0.06 µg/mL
MIC Streptococcus pneumoniae (GC 4565) (Streptococcus sp.): <0.06 µg/mL
MIC Streptococcus pyogenes (GC 4563) (Streptococcus sp.): 0.25 µg/mL (≈ 0.164 µM)
MIC Streptococcus pneumoniae (ATCC 6301) (Streptococcus sp.; inoculum 5×10^5 CFU/mL, strain ATCC 6301): <0.06 µg/mL
MIC Streptococcus pneumoniae (GC 1894) (Streptococcus sp.; inoculum 5×10^5 CFU/mL, strain GC 1894): <0.06 µg/mL
MIC Streptococcus pyogenes (GC 4563) (Streptococcus sp.; inoculum 5×10^5 CFU/mL, strain GC 4563): 0.25 µg/mL (≈ 0.164 µM)
MIC Streptococcus agalactiae (GC 4564) (Streptococcus sp.; inoculum 5×10^5 CFU/mL, strain GC 4564): 0.25 µg/mL (≈ 0.164 µM)
MIC Streptococcus pneumoniae (GC 4565) (Streptococcus sp.; inoculum 5×10^5 CFU/mL, strain GC 4565): <0.06 µg/mL
MIC Escherichia coli (ATCC 25922) (Escherichia coli): >64 µg/mL
MIC Escherichia coli (GC 4559) (Escherichia coli): >64 µg/mL
MIC Escherichia coli (GC 4560) (Escherichia coli): 1 µg/mL (≈ 0.657 µM)
SMILES: COc1ccc(COCC2OC(OC3C(CO)OC(Oc4ccc(CC5NC(=O)C(C(C)c6ccccc6)NC(=O)CNC(=O)C(CO)NC(=O)C(C(O)C6CNC(=N)N6C6OC(CO)C(O)C(O)C6O)NC(=O)C(C(O)C6CNC(=N)N6)NC5=O)cc4)C(O)C3O)C(O)C(O)C2O)cc1OCc1ccccc1 (stereo not shown) [Example 239]
MIC Staphylococcus haemolyticus (GC 4546) (Staphylococcus sp.): 1 µg/mL (≈ 0.657 µM)
MIC Staphylococcus haemolyticus (GC 4546) (Staphylococcus sp.; strain GC 4546): 1 µg/mL (≈ 0.657 µM)
